≈ marks a conversion by molar mass, not a printed value. Calls of active or inactive are those of the source. No cut-off for these calls is given here.
Columns and labels:
[1] = tested on: Staphylococcus aureus; experiment: Antibacterial activity against methicillin-resistant Staphylococcus aureus ATCC 43300; type: functional
[2] = tested on: Pseudomonas aeruginosa; experiment: Antibacterial activity against penicillin-susceptible Pseudomonas aeruginosa ATCC 27853; type: functional
[3] = tested on: Klebsiella pneumoniae; experiment: Antibacterial activity against Klebsiella pneumoniae ATCC 10031; type: functional
[4] = tested on: Staphylococcus aureus; experiment: Disruption of preformed biofilm in methicillin-resistant Staphylococcus aureus ATCC 43300 assessed as eradication of biofilm at 64 microg/ml by crystal violet staining based analysis relative to control; type: functional; settings: dose 64 µg/ml
[5] = tested on: Cell membrane; experiment: Induction of cytoplasmic membrane permeabilization in methicillin-resistant Staphylococcus aureus ATCC 43300 assessed as increase fluorescence intensity at 16 microg/ml by PI staining based fluorescence analysis; type: cell membranes; settings: dose 16.0 µg/ml
[6] = tested on: Staphylococcus aureus; experiment: Antibacterial activity against methicillin-resistant Staphylococcus aureus ATCC 43300 at 1/2 times of MIC measured after 20 passage; type: functional, organism-based
[7] = tested on: Cell membrane; experiment: Induction of cytoplasmic membrane depolarization in methicillin-resistant Staphylococcus aureus ATCC 43300 assessed as increase in fluorescence intensity at 2 microg/ml by DiSC3(5) dye-based fluorescence assay; type: cell membranes; settings: dose 2.0 µg/ml
[8] = tested on: Staphylococcus aureus; experiment: Selectivity ratio of MBC for bactericidal activity against methicillin-resistant Staphylococcus aureus ATCC 43300 in presence of 50% human blood to MBC for bactericidal activity against methicillin-resistant Staphylococcus aureus ATCC 43300; type: functional
[9] = tested on: Staphylococcus aureus; experiment: Inhibition of biofilm formation in methicillin-resistant Staphylococcus aureus ATCC 43300 at 8 microg/ml relative to control; type: functional
[10] = tested on: Staphylococcus aureus; experiment: Bactericidal activity against methicillin-resistant Staphylococcus aureus ATCC 43300 assessed as reduction in bacterial growth; type: functional, organism-based
[11] = tested on: Staphylococcus epidermidis; experiment: Antibacterial activity erythromycin-susceptible Staphylococcus epidermidis ATCC 12228; type: functional
[12] = tested on: Cell membrane; experiment: Induction of cytoplasmic membrane depolarization in methicillin-resistant Staphylococcus aureus ATCC 43300 assessed as increase in fluorescence intensity by DiSC3(5) dye-based fluorescence assay; type: cell membranes
[13] = tested on: Staphylococcus aureus; experiment: Drug resistance, ratio of MIC for methicillin-resistant Staphylococcus aureus ATCC 43300 after 20 passages to MIC for methicillin-resistant Staphylococcus aureus ATCC 43300 during first exposure; type: functional
[14] = tested on: Escherichia coli; experiment: Antibacterial activity against penicillin-susceptible Escherichia coli ATCC 25922; type: functional
[15] = tested on: Staphylococcus aureus; experiment: Inhibition of biofilm formation in methicillin-resistant Staphylococcus aureus ATCC 43300; type: functional, organism-based; settings: dose 2-32 µg/ml
[16] = Selectivity index, ratio of HC50 for hemolytic activity in sheep RBC to MIC for antibacterial activity against methicillin-resistant Staphylococcus aureus ATCC 43300; type: toxicity; settings: sheep red blood cells (erythrocytes), read-out: Selectivity Index
[17] = tested on: Cell membrane; experiment: Disruption of cell membrane in methicilin-resistant Staphylococcus aureus ATCC 43300 assessed as appearance of collapsed cell membrane by scanning electron microscopic analysis; type: cell membranes
[18] = tested on: Staphylococcus aureus; experiment: Bactericidal activity against methicillin-resistant Staphylococcus aureus ATCC 43300 in presence of 50% human plasma by Mueller Hinton broth based assay; type: functional
[19] = tested on: Cell membrane; experiment: Disruption of cell membrane integrity in methicillin-resistant Staphylococcus aureus ATCC 43300 assessed as appearance of red fluorescence by DAPI/PI staning based microscopic analysis; type: cell membranes
[20] = tested on: Staphylococcus aureus; experiment: Bactericidal activity against methicillin-resistant Staphylococcus aureus ATCC 43300 assessed as bacterial eradication at 16 times of MIC measured at 8 hrs by time kill kinetics analysis relative to control; type: functional
[21] = tested on: Staphylococcus aureus; experiment: Bactericidal activity against methicillin-resistant Staphylococcus aureus ATCC 43300 assessed as log reduction in bacterial growth at 16 times of MIC measured after 4 hrs by time killing analysis; type: functional
[22] = tested on: Staphylococcus aureus; experiment: Antibacterial activity against penicillin-resistant Staphylococcus aureus ATCC 31007; type: functional
[23] = tested on: Cell membrane; experiment: Induction of cell membrane disruption in methicillin-resistant Staphylococcus aureus ATCC 43300 assessed as increase in protein leakage; type: cell membranes
[24] = tested on: Staphylococcus aureus; experiment: Bactericidal activity against methicillin-resistant Staphylococcus aureus ATCC 43300 in presence of 50% human serum by Mueller Hinton broth based assay; type: functional
[25] = tested on: Cell membrane; experiment: Induction of cell membrane disruption in methicillin-resistant Staphylococcus aureus ATCC 43300 assessed as increase in DNA leakage; type: cell membranes
[26] = tested on: Staphylococcus aureus; experiment: Bactericidal activity against methicillin-resistant Staphylococcus aureus ATCC 43300 in presence of 50% human blood by Mueller Hinton broth based assay; type: functional; settings: ATCC 43300, Blood, time <= 6 hrs
[27] = tested on: Staphylococcus aureus; experiment: Selectivity ratio of MBC for bactericidal activity against methicillin-resistant Staphylococcus aureus ATCC 43300 in presence of 50% human serum to MBC for bactericidal activity against methicillin-resistant Staphylococcus aureus ATCC 43300; type: functional
[28] = tested on: Cell membrane; experiment: Disruption of cell membrane in methicilin-resistant Staphylococcus aureus ATCC 43300 assessed as appearance of wrinkled cell membrane by scanning electron microscopic analysis; type: cell membranes
[29] = tested on: Acinetobacter baumannii; experiment: Antibacterial activity against Acinetobacter baumannii ATCC 19606; type: functional
[30] = tested on: Staphylococcus aureus; experiment: Selectivity ratio of MBC for bactericidal activity against methicillin-resistant Staphylococcus aureus ATCC 43300 preincubated with 50% human plasma upto 6 hrs to MBC for bactericidal activity against methicillin-resistant Staphylococcus aureus ATCC 43300; type: functional
[31] = tested on: Staphylococcus aureus; experiment: Bacteriostatic activity against methicillin-resistant Staphylococcus aureus ATCC 43300 assessed as inhibition of bacterial growth at 1 times of MIC measured after 24 hrs by time-kill kinetic analysis; type: functional, organism-based
[32] = Hemolytic activity in sheep RBC; type: toxicity, cell-based, Ovis aries, Erythrocyte; settings: sheep red blood cells (erythrocytes)
[33] = tested on: Staphylococcus aureus; experiment: Induction of ROS production in methicillin-resistant Staphylococcus aureus ATCC 43300 assessed as fold increase in ROS level at 32 microg/ml by DCFH-DA staining based analysis; settings: dose 32 µg/ml
[34] = tested on: Staphylococcus aureus; experiment: Antibacterial activity against erythromycin-susceptible Staphylococcus aureus ATCC 25923; type: functional
[35] = tested on: Bacillus subtilis; experiment: Antibacterial activity against penicillin-susceptible Bacillus subtilis ATCC 9372; type: functional
[36] = tested on: Staphylococcus aureus; experiment: Inhibition of biofilm formation in methicillin-resistant Staphylococcus aureus ATCC 43300 at 2 microg/ml relative to control; type: functional
[37] = tested on: Staphylococcus aureus; experiment: Bactericidal activity against methicillin-resistant Staphylococcus aureus ATCC 43300 by Mueller Hinton broth based assay; type: functional; settings: time <= 6 hrs
[38] = tested on: Cell membrane; experiment: Disruption of cell membrane integrity in methicillin-resistant Staphylococcus aureus ATCC 43300 assessed as appearance of blue fluorescence by DAPI/PI staining based microscopic analysis; type: cell membranes
[39] = tested on: Staphylococcus aureus; experiment: Inhibition of biofilm formation in methicillin-resistant Staphylococcus aureus ATCC 43300 at 16 microg/ml relative to control; type: functional
[40] = tested on: Cell membrane; experiment: Disruption of cell membrane in methicillin-resistant Staphylococcus aureus ATCC 43300 assessed as appearance of broken surface by scanning electron microscopic analysis; type: cell membranes
[41] = tested on: Staphylococcus aureus; experiment: Disruption of preformed biofilm in methicillin-resistant Staphylococcus aureus ATCC 43300 assessed as eradication of biofilm at 8 microg/ml by crystal violet staining based analysis relative to control; type: functional; settings: dose 8 µg/ml
[42] = tested on: Staphylococcus aureus; experiment: Disruption of preformed biofilm in methicillin-resistant Staphylococcus aureus ATCC 43300 assessed as eradication of biofilm by crystal violet staining method; type: functional, organism-based; settings: dose 2-64 µg/ml
[43] = tested on: Enterococcus faecalis; experiment: Antibacterial activity against vancomycin-susceptible Enterococcus faecalis ATCC 29212; type: functional
[44] = tested on: Staphylococcus aureus; experiment: Bacteriostatic activity against methicillin-resistant Staphylococcus aureus ATCC 43300 assessed as inhibition of bacterial growth at 2 times of MIC measured after 24 hrs by time-kill kinetic analysis; type: functional, organism-based

## CCN(CC)CCCNCCCOc1ccc(/C=C/C(=O)c2ccc3c(c2OC)C=CC(C)(CCC=C(C)C)O3)cc1 (centres undefined)
[1]
  MIC: 2 µg/mL (≈ 3.48 µM)
[2]
  MIC: 64 µg/mL (≈ 111 µM)
[3]
  MIC: 4 µg/mL (≈ 6.96 µM)
[4]
  Activity: >40%
[5]
  Activity: Active
[6]
  Activity: Active
[7]
  Activity: inactive
[8]
  selectivity ratio: 2
[9]
  inhibition at 8 µg/mL: 91.6%
[10]
  Activity: Dose-Dependent Effect
[11]
  MIC: 1 µg/mL (≈ 1.74 µM)
[12]
  Activity: Dose-Dependent Effect
[13]
  Ratio: 2
[14]
  MIC: 2 µg/mL (≈ 3.48 µM)
[15]
  inhibition: Dose-Dependent Effect
[16]
  selectivity ratio: 135
[17]
  Activity: Active
[18]
  MBC: 32 µg/mL
[19]
  Activity: Active
[20]
  Activity: 100%
[21]
  log(activity): 6
[22]
  MIC: 1 µg/mL (≈ 1.74 µM)
[23]
  Activity: Active
[24]
  MBC: 32 µg/mL
[25]
  Activity: Active
[26]
  MBC: 64 µg/mL
[27]
  selectivity ratio: 2
[28]
  Activity: Active
[29]
  MIC: 8 µg/mL (≈ 13.9 µM)
[30]
  selectivity ratio: <2
[31]
  Activity: Active
[32]
  HC50: 270 µg/mL
[33]
  fold change (FC): 14
[34]
  MIC: 2 µg/mL (≈ 3.48 µM)
[35]
  MIC: 1 µg/mL (≈ 1.74 µM)
[36]
  inhibition at 2 µg/mL: 21.2%
[37]
  MBC: 32 µg/mL (≈ 55.7 µM)
[38]
  Activity: Active
[39]
  inhibition at 16 µg/mL: > 92%
[40]
  Activity: Active
[41]
  Activity: 19.12%
[42]
  Activity: Dose-Dependent Effect
[43]
  MIC: 2 µg/mL (≈ 3.48 µM)
[44]
  Activity: Active

From ChEMBL document CHEMBL5614413, “Design, synthesis and biological evaluation of amphiphilic benzopyran derivatives as potent antibacterial agents against multidrug-resistant bacteria” (Eur J Med Chem, 2024)
